ChEMBL document CHEMBL1201862, “PubChem BioAssay data set” (2004)
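The compound was tested at five concentrations on cells cultured in 96-well plates, with a 48-hour exposure period. Here, GI50 denotes the concentration required for 50% inhibition of growth.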 The source made the active and inactive calls. Cut-off read from the data, not from the text of the source: active = GI50 up to about 1.1 µM and inactive = higher.

Key:
Assay in all cases: DTP human tumour cell line panel, 48 h
[1] = test system: A549
[2] = test system: ACHN
[3] = test system: CCRF-CEM
[4] = test system: COLO 205
[5] = test system: EKVX
[6] = test system: HCT-116
[7] = test system: KM12
[8] = test system: LOX IMVI
[9] = test system: M14
[10] = test system: NCI-H226
[11] = test system: NCI-H522
[12] = test system: RPMI-8226
[13] = test system: SK-OV-3
[14] = test system: SNB-19
[15] = test system: SNB-75
[16] = test system: SW-620
[17] = test system: U-251
[18] = test system: UACC-62
[19] = test system: HT-29
[20] = test system: SF-539

| Compound | GI50 [1] | GI50 [2] | GI50 [3] | GI50 [4] | GI50 [5] | GI50 [6] | GI50 [7] | GI50 [8] | GI50 [9] | GI50 [10] | GI50 [11] | GI50 [12] | GI50 [13] | GI50 [14] | GI50 [15] | GI50 [16] | GI50 [17] | GI50 [18] | GI50 [19] | GI50 [20] |
| --- | --- | --- | --- | --- | --- | --- | --- | --- | --- | --- | --- | --- | --- | --- | --- | --- | --- | --- | --- | --- |
| CC1(C)O[C@@H](CBr)C[C@H](C[C@H]2C[C@@H](O)C[C@@H](CCOCc3ccccc3)O2)O1 | 23.9 µM (inactive) | 23.2 µM (inactive) | 47.3 µM (inactive) | 17 µM (inactive) | 17.8 µM (inactive) | 21.3 µM (inactive) | 21.5 µM (inactive) | 26.2 µM (inactive) | 23.5 µM (inactive) | 17.5 µM (inactive) | 16.4 µM (inactive) | 27.5 µM (inactive) | 18.1 µM (inactive) | 25.5 µM (inactive) | 20.5 µM (inactive) | 31.6 µM (inactive) | 31.8 µM (inactive) | 18.4 µM (inactive) | – | – |
| CC(=O)Nc1cc(C(=O)Nc2cc(C(=O)Nc3cc(C(=O)Nc4cc(C(=O)Nc5cc(C(=O)NCCC(=O)NCCCN(C)C)n(C)c5)n(C)c4)n(C)c3)n(C)c2)n(C)c1 | > 100 µM (inactive) | > 100 µM (inactive) | 27.8 µM (inactive) | 46.8 µM (inactive) | > 100 µM (inactive) | 37.3 µM (inactive) | 23.6 µM (inactive) | 37.4 µM (inactive) | > 100 µM (inactive) | > 100 µM (inactive) | 17.9 µM (inactive) | > 100 µM (inactive) | > 100 µM (inactive) | > 100 µM (inactive) | > 100 µM (inactive) | 69.5 µM (inactive) | 67.9 µM (inactive) | – | > 100 µM (inactive) | 44.5 µM (inactive) |
| COP1(=O)CC2C(Cl)(Cl)C2(C)C1 (stereo unspecified) | > 100 µM (inactive) | – | > 100 µM (inactive) | > 100 µM (inactive) | – | > 100 µM (inactive) | > 100 µM (inactive) | > 100 µM (inactive) | > 100 µM (inactive) | > 100 µM (inactive) | > 100 µM (inactive) | > 100 µM (inactive) | > 100 µM (inactive) | > 100 µM (inactive) | > 100 µM (inactive) | > 100 µM (inactive) | > 100 µM (inactive) | > 100 µM (inactive) | > 100 µM (inactive) | > 100 µM (inactive) |
| O=C1NC(=S)N/C1=C/c1c(-c2ccccc2)[nH]c2ccccc12 | – | 17.4 µM (inactive) | – | 17.9 µM (inactive) | 14.5 µM (inactive) | 14.3 µM (inactive) | 14.6 µM (inactive) | 10.9 µM (inactive) | – | 16.3 µM (inactive) | 13.2 µM (inactive) | 8.73 µM (inactive) | – | 16.5 µM (inactive) | 15.3 µM (inactive) | 17.1 µM (inactive) | 15.7 µM (inactive) | 11.7 µM (inactive) | 16.3 µM (inactive) | 17.4 µM (inactive) |
| CC(C)(C)c1cc(CCC(=O)Nc2ccc(Cl)cc2)nc(S)n1 | > 100 µM (inactive) | > 100 µM (inactive) | > 100 µM (inactive) | > 100 µM (inactive) | > 100 µM (inactive) | – | > 100 µM (inactive) | > 100 µM (inactive) | > 100 µM (inactive) | > 100 µM (inactive) | > 100 µM (inactive) | > 100 µM (inactive) | > 100 µM (inactive) | > 100 µM (inactive) | > 100 µM (inactive) | > 100 µM (inactive) | > 100 µM (inactive) | > 100 µM (inactive) | > 100 µM (inactive) | > 100 µM (inactive) |
| CC(C)(C)C(=O)C(CC(=O)c1ccccc1)C(=O)C(C)(C)C | > 100 µM (inactive) | > 100 µM (inactive) | > 100 µM (inactive) | > 100 µM (inactive) | > 100 µM (inactive) | > 100 µM (inactive) | > 100 µM (inactive) | > 100 µM (inactive) | > 100 µM (inactive) | > 100 µM (inactive) | > 100 µM (inactive) | > 100 µM (inactive) | > 100 µM (inactive) | > 100 µM (inactive) | 15.3 µM (inactive) | > 100 µM (inactive) | > 100 µM (inactive) | – | > 100 µM (inactive) | > 100 µM (inactive) |
| CC(=O)N1c2ccccc2C2=NN=C(N(C)C)SC21 (stereo unspecified) | 2.89 µM (inactive) | 2.54 µM (inactive) | 2.1 µM (inactive) | 3.3 µM (inactive) | 2.75 µM (inactive) | 2.72 µM (inactive) | 3.18 µM (inactive) | 2.1 µM (inactive) | 1.84 µM (inactive) | 3.12 µM (inactive) | 2.3 µM (inactive) | 5.96 µM (inactive) | – | 3.85 µM (inactive) | 13.6 µM (inactive) | 4.78 µM (inactive) | 1.67 µM (inactive) | – | 4.86 µM (inactive) | 3.48 µM (inactive) |
| CC(=O)OC1=C2CC3(C)OC(=O)CC(C)(C)C3=CC=C2C=C(C(C)C)C1=O (stereo unspecified) | 1.9 µM (inactive) | 0.518 µM (active) | 0.316 µM (active) | 0.631 µM (active) | 1.89 µM (inactive) | 0.41 µM (active) | 1.15 µM (inactive) | 0.201 µM (active) | 0.334 µM (active) | 1.74 µM (inactive) | 0.189 µM (active) | 0.22 µM (active) | 2.09 µM (inactive) | 1.83 µM (inactive) | 0.71 µM (active) | 0.316 µM (active) | 1.6 µM (inactive) | 0.268 µM (active) | 1.07 µM (active) | – |
